Patent publication US5998468A, “Furanone endothelin antagonists” (Warner-Lambert Company, priority 1997, dated 1999)
Entries after “also recorded” stand apart in the source; their conditions may differ. Like-named read-outs stand apart in the source and are kept apart here. Each block holds one compound with its values, some of them ahead of it. Where a SMILES comes first, the peptide text is derived from it. [ ]: non-standard residue; d: D form.

Tests used:
[1] = system: early cerebral vasospasm following SAH; conditions: cited from earlier work; for early cerebral vasospasm following SAH: rat
ETA = conditions: mouse endotoxic shock; cited from earlier work
[2] = system: early cerebral vasospasm following SAH; conditions: rabbit; cited from earlier work
endothelin receptor ETA = target: T1, endothelin receptor ETA (Oryctolagus cuniculus, UniProt A5A8K3); assay type: binding; conditions: [125I]-ET-1 25 pM, rabbit renal artery vascular smooth muscle cells; read-out: ERBA-A IC50
T1 sequence (A5A8K3 21-427): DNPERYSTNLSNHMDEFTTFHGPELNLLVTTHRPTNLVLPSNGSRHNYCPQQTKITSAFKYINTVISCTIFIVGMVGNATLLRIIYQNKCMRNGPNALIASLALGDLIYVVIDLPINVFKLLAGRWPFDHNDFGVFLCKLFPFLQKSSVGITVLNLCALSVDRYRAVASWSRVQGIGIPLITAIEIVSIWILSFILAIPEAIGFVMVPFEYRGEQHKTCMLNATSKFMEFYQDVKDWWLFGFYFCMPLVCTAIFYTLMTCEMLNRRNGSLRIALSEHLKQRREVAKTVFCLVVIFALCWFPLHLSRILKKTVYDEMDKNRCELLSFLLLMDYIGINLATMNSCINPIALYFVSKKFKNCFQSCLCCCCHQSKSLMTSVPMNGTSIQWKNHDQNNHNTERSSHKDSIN
Excerpt: (§1) The compounds of Formula I are valuable antagonists of endothelin.

endothelin receptor ETB = assay: Endothelin receptor binding assay-B (ERBA-B), [125I]-ET-1 binding in rat cerebellar membranes; conditions: [125I]-ET-1 25 pM, rat cerebellar membranes (also modified with human ETB in CHO-K1)
Excerpt: as §1
Count filters for radioactivity in gamma counter.
The above process has also been modified by using human recombinant CHO-K1 cells.
The tissue used for human ETB was recombinant human ETB receptor expressed in CHO-K1 cells (chinese hamster ovary cells). The gene for human ETB receptor was cloned and inserted into the pRc-CMW expression vector, then transfected into CHO-K1 cells by electroporation. For binding assays, membranes (0.7 mg protein) of CHO-K1 cells expressing recombinant human ETB receptor were used.

basilar artery = conditions: after 7 days, canine two-hemorrhage model of SAH; cited from earlier work

Compound: CC(C)C[C@@H]1NC(=O)[C@@H](C(C)C)NC(=O)[C@@H]2CCCN2C(=O)[C@@H](CC(=O)O)NC(=O)[C@@H](Cc2c[nH]c3ccccc23)NC1=O [BQ-123] (cyclo(L[dW][dD]P[dV]))
- early cerebral vasospasm following SAH [1]: prevent early cerebral vasospasm following subarachnoid hemorrhage; also recorded: prevents early cerebral vasospasm
- survival rate (ETA): significantly increased
- early cerebral vasospasm following SAH [2]: prevents early cerebral vasospasm

- IC50 (endothelin receptor ETA): 700 nM
- IC50 (endothelin receptor ETB): > 2500 nM
Compound: COc1ccc(C2OC(=O)C(c3ccc4c(c3)OCO4)=C2Cc2ccccc2)cc1 (centres unmarked) [Example 1, 3-Benzo[1,3]dioxol-5-yl-4-benzyl-5-(4-methoxyphenyl)-5H-furan-2-one]

- IC50 (endothelin receptor ETA): 30 nM
Compound: COc1ccc(C2OC(=O)C(c3ccc4c(c3)OCO4)=C2Cc2cc(OC)c(OC)c(OC)c2)cc1 (centres unmarked) [Example 2, 3-Benzo[1,3]dioxol-5-yl-5-(4-methoxyphenyl)-4-(3,4,5-trimethoxybenzyl)-5H-furan-2-one]

- IC50 (endothelin receptor ETA): > 100 nM
Compound: COc1ccc(CC2=C(c3ccc4c(c3)OCO4)C(=O)OC2c2cc(OC)c(OC)c(OC)c2)cc1 (centres unmarked) [Example 3, 3-Benzo[1,3]dioxol-5-yl-4-(4-methoxybenzyl)-5-(3,4,5-trimethoxyphenyl)-5H-furan-2-one]

- IC50 (endothelin receptor ETA): 200 nM
Compound: COc1ccc(C2OC(=O)C(c3ccc4c(c3)OCO4)=C2Cc2ccc(OC)c(C)c2)cc1 (centres unmarked) [Example 4, 3-Benzo[1,3]dioxol-5-yl-4-(4-methoxy-3-methylbenzyl)-5-(4-methoxyphenyl)-5H-furan-2-one]

Compound: COc1cccc(Oc2c(NS(=O)(=O)c3ccc(C(C)(C)C)cc3)ncnc2OCCO)c1 [Ro 46-2005]
- systemic arterial blood pressure ([1]; rat SAH): no significant effect
- early cerebral vasospasm following SAH [1]: prevent early cerebral vasospasm

Compound: FR 139317
- vasoconstriction of the basilar artery (basilar artery): significantly inhibited
